We go through one molecule from patent publication US20240269308A1, “PRODRUGS OF TOPOISOMERASE I INHIBITOR FOR ADC CONJUGATIONS AND METHODS OF USE THEREOF” (priority 2022, published 2024).

Series [1] is described as follows: Mouse whole blood stability test. The format is in vitro ADME. The conditions noted are these: mouse, 1 μM.
Series [2] can be described thus: M3385 metabolism in human liver S9 with NADPH and UDPGA. The format is in vitro ADME. The conditions noted are these: human, 240 min, 10 μM, pH 7.4. The text has this:
Briefly, hepatocytes are complete liver cells, containing various first-phase and second-phase enzymes that can mediate various metabolic reactions; therefore, it is a better in vitro model to test metabolites. Liver S9 is the supernatant obtained by grinding and centrifuging the liver cells. The enzymes content is lower compared to Hepatocytes. It mainly contains CYP enzymes and some biphasic enzymes (but no biphasic coenzyme), so additional coenzyme (NADPH and UDPGA, etc.) is needed to mediate the biphasic reaction.
The metabolism of model compound M3385 was evaluated in human liver S9 with NADPH and UDPGA as follows:
Assay buffer: 100 mM potassium phosphate buffer (K+/Mg2+ buffer, pH7.4):
The initial stock of liver S9 was diluted in K+/Mg^2+ buffer, pH 7.4 from 20 mg/ml to 2× Liver S9 (2 mg/mL) with alamethicin (50 μg/mL):
2×LS9/compound M3385 solution was prepared.
Time zero/T0: 199 μL 2 mg/mL liver S9 solution; 100 μL of 8 mM NADPH solution; 100 μL of 20 mM UDPGA solution; and 1200 μL of ACN were added, vortexed at 1000 rpm for 5 min, then 1 μL of 4 mM test compound solution was added.
T240 with a co-factor: 199 μL 2 mg/mL liver S9 solution; 100 μL of 8 mM NADPH solution; and 100 μL of 20 mM UDPGA solution were added. The T240 sample was prewarmed at 37° C. for 5 min and 1 μL of 4 mM test compound solution was added. After 240 min incubation, 1200 μL of ACN was added and then vortexed at 1000 rpm for 5 min.
Protein precipitation: quenched samples were centrifuged at 14000 rpm for 5 min.
Sample preparation: an aliquot of 1200 μL of the supernatant was evaporated under N2 stream until dry. Dried extracts were reconstituted with 200 μL of 25% aqueous ACN, vortexed for 2 minutes, centrifuged at 14000 rpm for 5 min, and then 3 μL of reconstituted supernatant were injected for LC-UV-MS analysis.

Another series deals with pGP (Homo sapiens, UniProt P08183). Particulars: not told.
pGP, sequence (P08183 whole entry): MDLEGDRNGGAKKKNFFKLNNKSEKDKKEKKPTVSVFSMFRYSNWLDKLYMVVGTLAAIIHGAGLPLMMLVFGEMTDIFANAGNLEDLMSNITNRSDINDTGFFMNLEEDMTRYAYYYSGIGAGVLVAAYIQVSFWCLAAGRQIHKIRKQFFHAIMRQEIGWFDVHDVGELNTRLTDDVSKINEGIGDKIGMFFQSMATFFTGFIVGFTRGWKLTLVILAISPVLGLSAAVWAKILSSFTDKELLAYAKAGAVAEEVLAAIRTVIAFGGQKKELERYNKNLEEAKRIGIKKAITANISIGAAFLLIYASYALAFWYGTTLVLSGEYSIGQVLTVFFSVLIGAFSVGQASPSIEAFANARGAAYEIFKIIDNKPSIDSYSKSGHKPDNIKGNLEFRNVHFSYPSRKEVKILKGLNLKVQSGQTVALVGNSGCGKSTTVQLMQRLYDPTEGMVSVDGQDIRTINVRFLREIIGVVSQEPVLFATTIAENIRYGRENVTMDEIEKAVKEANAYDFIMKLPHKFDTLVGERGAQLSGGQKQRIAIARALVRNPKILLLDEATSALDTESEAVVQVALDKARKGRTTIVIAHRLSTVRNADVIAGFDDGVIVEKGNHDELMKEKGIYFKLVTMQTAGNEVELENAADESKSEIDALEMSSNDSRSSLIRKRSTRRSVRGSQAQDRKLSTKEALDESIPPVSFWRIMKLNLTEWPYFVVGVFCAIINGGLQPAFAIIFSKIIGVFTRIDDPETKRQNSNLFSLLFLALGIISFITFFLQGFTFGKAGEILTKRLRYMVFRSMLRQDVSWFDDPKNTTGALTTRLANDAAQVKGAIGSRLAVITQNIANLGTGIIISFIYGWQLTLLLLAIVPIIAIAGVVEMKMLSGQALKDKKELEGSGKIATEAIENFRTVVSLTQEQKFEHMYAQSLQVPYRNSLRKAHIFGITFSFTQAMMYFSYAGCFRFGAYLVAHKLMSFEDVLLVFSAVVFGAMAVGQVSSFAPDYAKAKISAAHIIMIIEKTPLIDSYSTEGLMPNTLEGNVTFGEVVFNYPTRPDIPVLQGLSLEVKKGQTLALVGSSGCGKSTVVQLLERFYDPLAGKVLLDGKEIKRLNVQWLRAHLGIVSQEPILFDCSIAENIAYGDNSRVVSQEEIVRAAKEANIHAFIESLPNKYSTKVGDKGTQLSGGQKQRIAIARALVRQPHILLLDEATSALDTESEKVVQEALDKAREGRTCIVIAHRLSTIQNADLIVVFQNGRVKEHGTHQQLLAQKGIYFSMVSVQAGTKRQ
The target of the next series is T1, BCRP (Homo sapiens, UniProt Q9UNQ0).
T1 sequence (Q9UNQ0 1-655): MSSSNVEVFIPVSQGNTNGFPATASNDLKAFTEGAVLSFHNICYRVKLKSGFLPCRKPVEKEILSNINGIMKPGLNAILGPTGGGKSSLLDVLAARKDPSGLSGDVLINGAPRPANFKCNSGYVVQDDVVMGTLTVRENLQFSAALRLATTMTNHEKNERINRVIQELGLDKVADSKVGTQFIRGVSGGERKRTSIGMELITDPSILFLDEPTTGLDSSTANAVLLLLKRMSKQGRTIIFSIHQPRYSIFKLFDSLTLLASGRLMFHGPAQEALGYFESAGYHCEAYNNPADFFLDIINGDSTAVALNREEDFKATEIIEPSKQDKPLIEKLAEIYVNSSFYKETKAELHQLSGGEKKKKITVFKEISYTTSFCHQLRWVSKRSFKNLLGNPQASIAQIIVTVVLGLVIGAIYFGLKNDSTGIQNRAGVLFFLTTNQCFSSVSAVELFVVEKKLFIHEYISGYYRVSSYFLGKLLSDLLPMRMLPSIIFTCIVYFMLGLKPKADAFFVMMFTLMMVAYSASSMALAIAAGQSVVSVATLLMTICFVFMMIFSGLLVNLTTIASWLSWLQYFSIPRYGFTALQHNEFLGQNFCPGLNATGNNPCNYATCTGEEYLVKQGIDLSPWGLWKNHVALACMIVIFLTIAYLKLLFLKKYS
The conditions noted are these: not told.

For the molecule `CC[C@@]1(O)C(=O)OCc2c1cc1n(c2=O)Cc2c-1nc1cc(F)c(C)c3c1c2[C@@H](NC(=O)COCNC(=O)CN)CC3` [ProDXd], the “% of test compound in whole blood (initial 1 uM as 100%)” value in series [1] (0 hr) is on record as 100.0%; in series [1] (0.25 hr) it was 63.9%; in series [1] (0.5 hr) it was 39.0%; in series [1] (1 hr), 30.7%; in series [1] (2 hr), 14.8%; in series [1] (4 hr), 2.7%. The “% of test compound in whole blood (initial 1 uM as 100%)” value in series [1] (8 hr) stood at 0.3%; in series [1] (24 hr) it was 0.0%. Moreover, in series [2], the “Relative UV Abundance* (%), group total” value was 3.94%. Further, the pGP efflux rate result at pGP is “Lower”. Further, the BCRP efflux rate entry on BCRP is recorded as “Lower”.
